Measurements: US8710045B2, “Agents for preventing and treating disorders involving modulation of the ryanodine receptors” (The Trustees of Columbia University in the City of New York, priority 2004, dated 2014)
Like-named read-outs stand apart in the source and are kept apart here.

Assays:
C57BL/6J mice = experiment: S36 chronic exercise model: swimming velocity tracking and treadmill running; assay type: in vivo, mouse
Experimental: Drug Delivery: Eight-week-old, wild-type, weight-matched, C57BL/6J littermate mice were randomized to either S36 or vehicle treatment. On day −2, osmotic infusion pumps (Alzet Model 2004, 200 μl total volume, 0.25 μl/hr delivery, Durect, Cupertino, Calif.) filled with either 200 ul of PBS or 200 μl of S36 (10 μg/ul diluted in PBS) were implanted subcutaneously on the dorsal surface of the mice by a horizontal incision just behind the neck. Mice were allowed to recover for three days prior to the initiation of exercise. Standard food and water were provided ad libitum.
Exercise Protocols: Beginning on day 1, mice were exercised for three weeks by swimming 5 days/week and by running on a treadmill an additional 1 day/week.
Swimming Model: The daily swimming protocol consisted of swimming sessions twice-daily separated by one-hour rest periods. After an initial conditioning regimen lasting 5 days during which the swimming sessions were increased in 10 minute increments from 40 minutes each to 80 minutes each, the swimming sessions thereafter lasted 90 minutes each. A 30 cm wide by 30 cm long opaque acrylic tank was filled with tap water to a depth of at least 20 cm. Water was circulated and warmed to 32-34 degrees C. using a separate reservoir with heating element, thermostat, and pump. Compressed room air was bubbled from Tygon tubing with small needle holes placed at the bottom of the tank to agitate the water surface. 4 mice, matched pair-wise with respect to treatment group, swam at any one time in the tank.
In order to track the swimming activity of each individually identified mouse, a video tracking system was used (San Diego Instruments, San Diego, Calif.), which includes Sony CCD video recorder, DVD/Hard Drive, frame grabber card, and custom SMART 2.0 software with Social Behavior package capable of tracking up to 8 mice simultaneously under ideal conditions.) Mice were anesthetized by using 1.5% isoflurane in O2, and small, 0.75 cm, Velcro coins were sutured with 5-0 nylon suture to the scalp of each mouse. Plastic 1 cm colored dots, glued to the hook side of the Velcro, could be securely attached to the mouse and used for multiple subject tracking under appropriate lighting conditions. Each resultant mouse track in x,y, and time was analyzed and mean velocities, and distance swam over 2, 5, and 10 minute intervals was obtained.
Treadmill running: A Columbus Instruments (Columbus, Ohio) treadmill (Model: Exer-6M Treadmill with Treadmill Shock Detection Unit) with 6 lanes was used to run the mice. Mice were placed in their respective lanes at the lowest speed (7 meters/min) with the shocking apparatus turned off and allowed to adjust to the surroundings for 6 minutes. The forward half of the treadmill was covered with aluminum foil to block out light. A desk lamp illuminated the shocking area at the rear of the treadmill. After the adjustment period, the electric current was turned on, and the number of shocks delivered during the next two three minute intervals (training period) were recorded. The shock counter was then reset, the speed was increased to 10 m/min, and visits to the shocking area and shocks delivered to each mouse were recorded at three-minute intervals until the end of the experiment. At regular intervals, the speed of the treadmill was ramped up from the initial 10 m/min to as high as 36 m/min. The speed was increased no more than 2 m/min every 6 minutes. […]

calpain = experiment: Calpain activity assay in EDL homogenates of chronically exercised mice; assay type: in vivo, mouse
Experimental: Calpain and Creatine Kinase Assays: Tissue calpain activities were measured using a calpain activity assay kit (Calbiochem, San Diego, Calif.) (FIG. 42B). This assay is based on the degradation of the fluorescent peptide substrate Suc-LLVY-AMC (Calbiochem). Muscle homogenates were diluted to a final concentration of 600 μg/ml and the calpain activity in the homogenate was determined as per manufactures instructions. Plasma creatine kinase (CK) activity was assayed using the regent kit from Pointe Scientific, Inc. (Canton, Mich.) (FIG. 42A). Plasma samples (duplicates, 5 μl each) were added to 200 μl of CK reagent and the change in absorbance at 340 nm was recorded over 4 minutes using a plate reader. The average absorbance change per minute was used to determine the CPK levels as per manufacturer's instructions.
Reduced calpain activation in muscle tissue and reduced muscle tissue damage due to calstabin1 rebinding: One possible mechanism by which calcium released by leaky RyR1 channels impairs exercise performance is the activation of a member of the calpain family of Ca^2+-dependent neutral proteases, which are known to be responsible for muscle damage in a number of pathophysiological states. […] Calpain activity in muscle homogenates was assessed by means of the degradation of the synthetic calpain substrate Suc-LLVY-AMC, which fluoresces upon cleavage by calpain.

hERG potassium current = hERG potassium current (Homo sapiens, UniProt Q12809); experiment: S107 specificity: hERG potassium current; details: 500 nM
RyR = RyR immunoprecipitation from whole brain microsomes of exercised mice; assay type: in vivo, mouse; details: 21 days
Experimental: Tissue lysates were prepared by homogenizing the tissue (e.g., brain, cardiac, muscle) with Tissuemiser in 0.7 ml lysis buffer (pH 7.4, 10 mM HEPES, 1 mM EDTA, 20 mM NaF, 2 mM Na3 VO4, 320 mM sucrose, and protease inhibitors) and centrifuged for 15 min at 4,000×g at 4° C. The supernatant was then centrifuged for 15 min at 10,000×g at 4° C. For brain homogenates, the supernatant was centrifuged at 50,000×g at 4° C. for 30 minutes, and the pellet (microsomes) was resuspended in homogenization buffer which was supplemented with 0.9% NaCl. For brain tissue, the resuspended pellet was used for immunoprecipitation of RyR. For cardiac and muscle tissue homogenates, the supernatant of the 10,000×g spin was used for immunoprecipitation of the RyR. Protein concentrations were measured by Bradford protein assay. The sample was frozen at −80° C. until use.
100 μg of microsomes were brought to a volume of 500 μl with modified RIP A buffer (50 mM Tris-HCl (PH 7.4), 0.9% NaCl, 5.0 mM NaF, 1.0 mM Na3VO4, 0.5% TritonX100, and protease inhibitors). […] The sample was incubated with 40 μl of Protein A Sepharose beads and rotated for 1 hr at 4° C. […]
Ryanodine receptor (types 1 and 2) was immunoprecipitated from whole brain microsomes. Immunoprecipitates were separated by 4-20% PAGE and analyzed for total RyR, PKA phosphorylated RyR, and calstabin.

FDB muscle fibers = experiment: Confocal calcium imaging of isolated FDB muscle fibers during fatigue protocol; assay type: in vivo, mouse; details: FDB fibers from treated, chronically exercised mice
Experimental: Confocal microscopy: Single flexor digitorum brevis (FDB) fibers were enzymatically dissociated by standard methods (Reiken, Lacampagne et al. 2003). Briefly, the muscle was dissected from the paw, placed in a modified Ringer's solution, and stripped of all fascia. Type 1 collagenase-(2 mg/ml, Sigma) in Ringer's solution was prepared fresh, and the muscle was digested for 2 hours at 37° C. in a incubator shaking at 125 rpm. The muscle was placed in fresh Ringer's and gently triturated. Single fibers were collected and allowed to attach to glass coverslips coated in laminin (Sigma L-2020). The cells were loaded with 2 μM fluo-4-AM ester (Invitrogen) for 20 minutes, placed on the Zeiss Live 5 microscope stage and superfused for 15 minutes with Ringer's. The fibers were paced at 1 Hz for 10 minutes prior to imaging baseline fiber properties. Linescan images were continuously acquired at 1 ms scan rate during a tetanic sequence consisting of 300 ms stimulation at 100 Hz with a 2 Hz train rate. Images were analyzed in ImageJ, and an F/F0 ratio was calculated for each fiber.
Reduced fatiguability in calstabin1 rebound FDB muscle fibers: Flexor digitorum brevis (FDB) muscle fibers were enzymatically dissociated from mice following the chronic exercise protocol and loaded with the calcium indicator fluo-4. […] The kinetics of Ca^2+ release and reuptake during single twitches at 1 Hz were assessed.

Sequence of hERG potassium current (Q12809 whole entry): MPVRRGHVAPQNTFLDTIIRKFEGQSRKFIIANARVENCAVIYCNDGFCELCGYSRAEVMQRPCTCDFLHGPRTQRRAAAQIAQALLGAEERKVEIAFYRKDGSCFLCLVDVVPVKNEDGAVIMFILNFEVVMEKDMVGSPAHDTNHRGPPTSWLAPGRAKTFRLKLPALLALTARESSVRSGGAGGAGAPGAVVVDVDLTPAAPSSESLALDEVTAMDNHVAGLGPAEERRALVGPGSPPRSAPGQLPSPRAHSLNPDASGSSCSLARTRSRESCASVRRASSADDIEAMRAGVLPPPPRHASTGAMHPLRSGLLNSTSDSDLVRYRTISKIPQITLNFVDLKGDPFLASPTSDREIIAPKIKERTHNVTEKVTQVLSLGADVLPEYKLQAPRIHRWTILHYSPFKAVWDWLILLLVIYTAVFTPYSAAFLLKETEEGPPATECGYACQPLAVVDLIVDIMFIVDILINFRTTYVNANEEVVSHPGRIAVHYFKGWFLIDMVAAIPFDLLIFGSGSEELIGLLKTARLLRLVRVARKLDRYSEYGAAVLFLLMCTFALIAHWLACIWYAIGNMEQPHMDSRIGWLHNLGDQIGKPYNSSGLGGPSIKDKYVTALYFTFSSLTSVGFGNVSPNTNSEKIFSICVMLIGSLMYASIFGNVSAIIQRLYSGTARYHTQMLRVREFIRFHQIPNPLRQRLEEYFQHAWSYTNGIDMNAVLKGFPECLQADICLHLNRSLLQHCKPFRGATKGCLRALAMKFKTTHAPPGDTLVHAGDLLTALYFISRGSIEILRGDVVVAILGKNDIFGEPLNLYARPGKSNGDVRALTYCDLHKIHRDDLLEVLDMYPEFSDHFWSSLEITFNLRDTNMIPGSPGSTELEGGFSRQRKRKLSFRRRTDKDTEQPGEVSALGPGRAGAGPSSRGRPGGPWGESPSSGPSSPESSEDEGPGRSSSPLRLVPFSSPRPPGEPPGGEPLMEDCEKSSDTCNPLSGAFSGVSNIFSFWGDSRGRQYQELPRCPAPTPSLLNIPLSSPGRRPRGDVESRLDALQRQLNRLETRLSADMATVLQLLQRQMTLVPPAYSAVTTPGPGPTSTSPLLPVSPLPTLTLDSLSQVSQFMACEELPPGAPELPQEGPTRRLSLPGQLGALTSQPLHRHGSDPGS

| Compound | plasma levels preventing exercise-induced sudden cardiac death compared with JTV-519 (FKBP12.6+/− mice; mouse, in vivo) | cardiac arrhythmias and sudden cardiac death (FKBP12.6+/− mice; plasma level 0.02 μM) | cardiac arrhythmias and sudden cardiac death (FKBP12.6+/− mice; plasma level 1 μM) | swimming velocity vs PBS (C57BL/6J mice; day 1 of exercise) | swimming velocity and treadmill distance/fatigue time vs PBS (C57BL/6J mice; day 7 of exercise) | swimming velocity vs PBS (C57BL/6J mice; day 14) | treadmill running performance vs PBS (C57BL/6J mice; day 14) | treadmill running performance vs PBS (C57BL/6J mice; day 16) | Calpain activity in EDL homogenates (calpain) | effect on hERG potassium current (hERG potassium current) | binding of calstabin to RyR in whole brain microsomes (RyR) | peak tetanic calcium transients during fatigue protocol (FDB muscle fibers) |
| --- | --- | --- | --- | --- | --- | --- | --- | --- | --- | --- | --- | --- |
| COc1ccc2c(c1)CN(C(=O)C(=O)O)CCS2 [S36] | lower plasma levels compared with JTV-519 | prevent | prevent | no substantial difference | no substantial difference | no significant difference | trend toward improved performance | trend toward improved performance | – | – | – | – |
| COc1ccc2c(c1)CN(C)CCS2 [S107] | – | – | – | – | – | – | – | – | significantly reduced | not to affect | restores the binding of calstabin to RyR | delayed decline in peak tetanic calcium transients |
